Experimental data taken from article PMC5674221, “Harnessing fungal nonribosomal cyclodepsipeptide synthetases for mechanistic insights and tailored engineering” (Chemical Science, 2017).
Like-named read-outs stand apart in the source and are kept apart here.

Columns and labels:
[1] = tested on: Leishmania donovani MHOM-ET-67/L82 (host free axenic amastigotes); assay: microbe, parasite or virus in culture; details: for IC50: read-out: IC50 Leishmania donovani
Experimental: (§1) Bioactivity assays. Purified octa-enniatin B, octa-beauvericin and hexa-bassianolide were tested for antiparasitic, antibacterial and antifungal bioactivity together with standards of enniatin B, beauvericin and bassianolide. […]
(§2) Supplementary Table 4: Antiparasitic activity and cytotoxicity of natural and hybrid CDPs. Antiparasitic activity was analyzed against Trypanosoma brucei rhodesiense STIB 900 (trypomastigotes), Trypanosoma cruzi Tulahuen C4 (amastigotes) and Leishmania donovani MHOM-ET-67/L82 (host free axenic amastigotes) as IC50-values. […]

in vitro = details: rat
Experimental: as §1
67/L82 (host free axenic amastigotes) to determine the IC50 values as previously described by Orhan et al. (2010) (Supplementary Table 4).9 Additionally, cytotoxicity was determined with an L6 rat-derived cell line (Supplementary Table 4). […]
Supplementary Table 4: Antiparasitic activity and cytotoxicity of natural and hybrid CDPs. […]
(§3) Cytotoxicity was analyzed with rat-derived L6 cells. […]

[2] = tested on: Candida albicans STI:25000; assay: Antifungal inhibition zone test, C. albicans; assay type: cell-based; details: JMRC-No. STI:25000; Supplementary Table 6
Experimental: as §1
(§4) Table 5). Antifungal activity was determined against Sporobolomyces salmonicolor […]
(§5) Aspergillus fumigatus Afum:00073 = ATCC46645 (Supplementary Table 6). The bacterial and fungal test strains are deposited at the Jena Microbial Resource Collection at www.jmrc.hki-jena.de. Activity was determined based on inhibition zone diameters in […]
(§6) (antifungal) in accordance to Krieg et al. (2017).10 […]
(§7) p- Colonies in inhibition zone
(§8) P- Many colonies in inhibition zone
(§9) F- Promotion of inhibition zone
(§10) A- Intimation of inhibition
(§11) Supplementary Table 6: Antifungal activity of natural and hybrid CDPs. Activity was analyzed by comparison of inhibition zone diameters.

[3] = tested on: Penicillium notatum STI:50164; assay: Antifungal inhibition zone test, P. notatum; assay type: cell-based; details: JMRC-No. STI:50164; Supplementary Table 6; solvent gave 10
Experimental: as §1, §4, §5, §6, §7, §8, §9, §10, §11

[4] = tested on: Sporobolomyces salmonicolor ST:35974; assay: Antifungal inhibition zone test, S. salmonicolor; assay type: cell-based; details: JMRC-No. ST:35974; Supplementary Table 6; solvent gave 10
Experimental: as §1, §4, §5, §6, §7, §8, §9, §10, §11

[5] = tested on: Aspergillus fumigatus Afum:00073 = ATCC46645; assay: Antifungal inhibition zone test, A. fumigatus; assay type: cell-based; details: JMRC-No. ATCC 46645; Supplementary Table 6
Experimental: as §1, §4, §5, §6, §7, §8, §9, §10, §11

[6] = tested on: Staphylococcus aureus ST:33793; assay: Antibacterial inhibition zone test, S. aureus; assay type: cell-based; details: JMRC-No. ST:33793; Supplementary Table 5
Experimental: as §1
(§12) For antibacterial testing, the following strains were used: Bacillus subtilis STI:10880, Psudomonas aeruginosa ST:337721 (multi-resistent), Staphylococcus aureus ST:33793, Enterococcus faecalis ST:33700 (vancomycin-resistent) and Mycobacterium vaccae STI:10670 (Supplementary […]
as §5, §6
(§13) Supplementary Table 5: Antibacterial activity of natural and hybrid CDPs. Activity was analyzed by comparison of inhibition zone diameters. […]
as §7, §8, §9
(§14) A- Intimation of inhibition […]

[7] = tested on: Bacillus subtilis STI:10880; assay: Antibacterial inhibition zone test, B. subtilis; assay type: cell-based; details: JMRC-No. STI:10880; Supplementary Table 5
Experimental: as §1, §12, §5, §6, §13, §7, §8, §9, §14

[8] = tested on: Mycobacterium vaccae STI:10670; assay: Antibacterial inhibition zone test, M. vaccae; assay type: cell-based; details: JMRC-No. STI:10670; Supplementary Table 5
Experimental: as §1, §12, §5, §6, §13, §7, §8, §9, §14

[9] = tested on: Trypanosoma brucei rhodesiense STIB 900 (trypomastigotes); assay: microbe, parasite or virus in culture
Experimental: as §1, §2

[10] = tested on: Enterococcus faecalis ST:33700 (vancomycin-resistent); assay type: cell-based; details: JMRC-No. ST:33700; Supplementary Table 5
Experimental: as §1, §12, §5, §6, §13, §7, §8, §9, §14

[11] = tested on: Trypanosoma cruzi Tulahuen C4 (amastigotes); assay: microbe, parasite or virus in culture; details: for IC50: read-out: IC50 Trypanosoma cruzi; for fold lower IC50 against T. cruzi than the reference drug benznidazole: given as 'up to'
Experimental: Bioactivity assays. Purified octa-enniatin B, octa-beauvericin and hexa-bassianolide were tested for antiparasitic, antibacterial and antifungal bioactivity together with standards of enniatin B, beauvericin and bassianolide. Antiparasitic activity assays were performed against Trypanosoma brucei rhodesiense STIB 900 (trypomastigotes), Trypanosoma cruzi Tulahuen C4 (amastigotes) and Leishmania donovani MHOM-ET-67/L82 (host free axenic amastigotes) to determine the IC50 values as previously described by Orhan et al. (2010) (Supplementary Table 4).9 Additionally, cytotoxicity was determined with an L6 rat-derived cell line (Supplementary Table 4). […]
Supplementary Table 4: Antiparasitic activity and cytotoxicity of natural and hybrid CDPs. Antiparasitic activity was analyzed against Trypanosoma brucei rhodesiense STIB 900 (trypomastigotes), Trypanosoma cruzi Tulahuen C4 (amastigotes) and Leishmania donovani MHOM-ET-67/L82 (host free axenic amastigotes) as IC50-values.
as §3

[12] = tested on: Pseudomonas aeruginosa ST:337721 (multi-resistent); assay: Antibacterial inhibition zone test, P. aeruginosa; assay type: cell-based; details: JMRC-No. ST:337721; Supplementary Table 5; solvent gave 10
Experimental: as §1, §12, §5, §6, §13, §7, §8, §9, §14

[13] = read-out: IC50 Trypanosoma b. rhodesiense, STIB 900, trypomastigotes, Supplementary Table 4
[14] = MHOM-ET-67/L82, host free axenic amastigotes, Supplementary Table 4 and main text
[15] = Tulahuen C4, amastigotes, Supplementary Table 4 and main text

Structure (SMILES)	IC50 ([1]; Leishmania donovani)	IC50 (in vitro)	Inhibition zone diameter, Candida albicans [2]	Inhibition zone diameter, Penicillium notatum [3]	Inhibition zone diameter, Sporobolomyces salmonicolor [4]	Inhibition zone diameter, Aspergillus fumigatus [5]	Inhibition zone diameter, Staphylococcus aureus [6]	Inhibition zone diameter, Bacillus subtilis [7]	Inhibition zone diameter, Mycobacterium vaccae [8]	activity against Trypanosoma b. rhodesiense (in words) [9]	IC50 [9, 13]	activity against Leishmania donovani (in words) [1]	IC50 [1, 14]	Inhibition zone diameter, Enterococcus faecalis (vancomycin-resistent) [10]	activity against Trypanosoma cruzi (in words) [11]	IC50 [11, 15]	IC50 ([9]; Trypanosoma brucei, RHODESIENSE|STIB900, read-out: IC50 Trypanosoma b. rhodesiense)	fold lower IC50 against T. cruzi than the reference drug benznidazole [11]	Inhibition zone diameter, Pseudomonas aeruginosa (multi-resistent) [12]	IC50 ([11]; Trypanosoma cruzi, TULAHUEN)
CCCCCCCCCCCCCCCCOP(=O)([O-])OCC[N+](C)(C)C [Miltefosine, miltefosine]	576 nM	138000 nM	–	–	–	–	–	–	–	–	–	–	–	–	–	–	–	–	–	–
C[C@@H]1[C@H](O)[C@@H](C)/C=C/C=C/C=C/C=C/C=C/C=C/C=C/[C@H](O[C@@H]2O[C@H](C)[C@@H](O)[C@H](N)[C@@H]2O)C[C@@H]2O[C@](O)(C[C@@H](O)C[C@@H](O)[C@H](O)CC[C@@H](O)C[C@@H](O)CC(=O)O[C@H]1C)C[C@H](O)[C@H]2C(=O)O [Amphotericin B, amphotericin B]	–	–	20	18p	18p	20	–	–	–	–	–	–	–	–	–	–	–	–	–	–
O=C(O)c1cn(C2CC2)c2cc(N3CCNCC3)c(F)cc2c1=O [Ciprofloxacin, ciprofloxacin]	–	–	–	–	–	–	0	29	20p	–	–	–	–	–	–	–	–	–	–	–
CC(C)C[C@H]1C(=O)O[C@H](C(C)C)C(=O)N(C)[C@@H](CC(C)C)C(=O)O[C@H](C(C)C)C(=O)N(C)[C@@H](CC(C)C)C(=O)O[C@H](C(C)C)C(=O)N1C [hexa-bassianolide]	–	6350 nM	0	0	0	0	0	10	14p	active	1260 nM	active	315 nM	0	active	3520 nM	–	–	–	–
Nc1nc(N)nc(Nc2ccc([As]3SCC(CO)S3)cc2)n1 (stereo not drawn) [Melarsoprol, melarsoprol]	–	28600 nM	–	–	–	–	–	–	–	–	–	–	–	–	–	–	7 nM	–	–	–
CC(C)[C@H]1OC(=O)[C@H](Cc2ccccc2)N(C)C(=O)[C@@H](C(C)C)OC(=O)[C@H](Cc2ccccc2)N(C)C(=O)[C@@H](C(C)C)OC(=O)[C@H](Cc2ccccc2)N(C)C(=O)[C@@H](C(C)C)OC(=O)[C@H](Cc2ccccc2)N(C)C1=O [octa-beauvericin]	–	1580 nM	0	0	0	–	0	0	12p	–	782 nM	–	144 nM	0	–	533 nM	–	up to 12 fold	0	–
O=C(Cn1ccnc1[N+](=O)[O-])NCc1ccccc1 [Benznidazole, benznidazole]	–	> 380000 nM	–	–	–	–	–	–	–	–	–	–	–	–	–	–	–	–	–	6530 nM
CC(C)[C@H]1C(=O)O[C@H](C(C)C)C(=O)N(C)[C@@H](C(C)C)C(=O)O[C@H](C(C)C)C(=O)N(C)[C@@H](C(C)C)C(=O)O[C@H](C(C)C)C(=O)N1C [enniatin B]	–	4110 nM	0	–	0	0	15P	15p	24	–	1050 nM	–	719 nM	–	–	2300 nM	–	–	–	–
CC(C)C[C@H]1C(=O)O[C@H](C(C)C)C(=O)N(C)[C@@H](CC(C)C)C(=O)O[C@H](C(C)C)C(=O)N(C)[C@@H](CC(C)C)C(=O)O[C@H](C(C)C)C(=O)N(C)[C@@H](CC(C)C)C(=O)O[C@H](C(C)C)C(=O)N1C [bassianolide]	–	5110 nM	0	0	0	0	0	0	12p	–	1690 nM	–	195 nM	0	–	1390 nM	–	–	0	–
CC(C)[C@H]1OC(=O)[C@H](Cc2ccccc2)N(C)C(=O)[C@@H](C(C)C)OC(=O)[C@H](Cc2ccccc2)N(C)C(=O)[C@@H](C(C)C)OC(=O)[C@H](Cc2ccccc2)N(C)C1=O [beauvericin]	–	1940 nM	0	14p	0	–	13	18	27	–	1630 nM	–	311 nM	18F	–	764 nM	–	–	14P	–
CC(C)[C@H]1C(=O)O[C@H](C(C)C)C(=O)N(C)[C@@H](C(C)C)C(=O)O[C@H](C(C)C)C(=O)N(C)[C@@H](C(C)C)C(=O)O[C@H](C(C)C)C(=O)N(C)[C@@H](C(C)C)C(=O)O[C@H](C(C)C)C(=O)N1C [octa-enniatin B]	–	3900 nM	–	–	–	–	–	–	–	–	873 nM	–	70 nM	–	–	1750 nM	–	up to 12 fold	–	–
